# Experimental data taken from patent publication US11725000B2, “Apoptosis inhibitors” (National Institute of Biological Sciences, Beijing, priority 2017, dated 2023).
# Where a SMILES comes first, the peptide text is derived from it. The star is where a group is joined. Cbz = O=C(OCc1ccccc1)*; CH2F = FC*
# Key:
# Format in all cases: cell-based
# U2OS_Bim cells [1] = test: Irreversibility binding assay (cellular wash/no wash assay)
# Description: It has been reported that sulfone can serve as a good leaving group in SN2 substitution reactions when linked to electron withdrawing groups. Active compounds in our SAR study all contained a —CF3 substituted pyrimidine ring linked to the sulfone group. Replacement of CF3 at the R2 position with groups with less powerful electron-withdrawing properties totally abolished the apoptosis inhibition activity. […] To test the reactivity of representative TC09 compounds, we performed model reactions using different nucleophilic reagent (cysteine, lysine, and glutathione) with compounds 1, 6, and 27. […] To further explore the binding mode of the active compounds in a cellular context, we next performed a cellular wash/no wash assay for determining the reversibility of compound-target interactions. Following compound incubation, one subset of cells was washed several times to eliminate the free test compounds, and the other subset was not washed. Apoptosis was induced and the viability of cells was then measured and EC50 under wash conditions was compared with no wash conditions.[9]
# U2OS_Bim cells were plated at a density of 3000 cells per well in 96-well plates. 24 hrs later, duplicate sets of cells were treated with experimental compounds for 3 hrs. One subset of these cells were treated with 0.1 μg/mL DOX to trigger apoptosis. The remaining subset of cells was washed free of the experimental compound using warmed medium, 3 times, before being treated with 0.1 μg/mL DOX. 24 hours after DOX addition, cell viability was determined by measuring the ATP levels using a CellTiter-Glo kit. Cell survival rate was calculated. zVAD (20 μM) was used as a positive control.
# U2OS_Bim cells [2] = test: TMRM staining (mitochondrial membrane potential); details: DOX induction of Bim
# Procedure: U2OS_Bim cells were plated at a density of 3000 cells per well in 96-well optical plates. 24 hrs later, cells were treated with experimental compounds for one hour. The cells were then treated with 0.1 μg/mL DOX to trigger apoptosis. 4 hrs later, 50 nM TMRM was added to each well and incubated for 30 min. Cells were washed 3 times with warmed PBS buffer and examined with a Zeiss LSM 510 confocal microscope.
# U2OS_Bim cells [3] = test: Long-term cell survival under constant apoptotic insult (DOX)
# Procedure: We therefore tested the long-term impact of TC09 compounds on cells experiencing constant apoptotic insult. […] Remarkably, in the presence of tested TC09 compounds, the cells continued to proliferate, similar to cells grown under normal conditions.
# The U2OS_Bim cells were all killed when DOX was added, even in the presence of z-VAD-FMK.
# U2OS_Bim cells [4] = test: Apoptosis inhibition assay (Bim-induced apoptosis, cell viability by ATP level); details: U2OS_Bim cells
# How it was run: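 Apoptosis was triggered by doxycycline (0.1 μg/mL) induction of Bim, one hour after compound addition to U2OS_Bim cells. Survival was measured after 24 h from cellular ATP (CellTiter-Glo), relative to DMSO, with zVAD at 20 μM as rescue control. Data are duplicate means, some estimated from preliminary results.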
# U2OS_Bim cells [5] = test: Immunostaining of cytochrome c (mitochondrial cytochrome c release); details: immunofluorescence after induced Bim overexpression
# Procedure: U2OS_Bim cells were plated in Lab-Tek eight-chambered slides (Thermo Scientific). 24 hrs later, cells were treated with experimental compounds for one hour. Cell were washed by PBS for 10 min and fixed with 2% PFA for 30 min at room temperature. Following three additional washes in PBS, cells were incubated in PBS containing 0.1% Triton X-100 for 10 min. Cytochrome c antibody (diluted in 5% BSA in PBST) was incubated with the cells at 4° C. overnight. Cells were then washed three times with PBST and incubated with secondary antibody at room temperature for 1 h. Following three additional washes in PBS, the slides were covered and sealed and then examined with a Zeiss LSM 510 confocal microscope.
# [6] = no wash, 3 hrs compound incubation before DOX, read-out: EC50 (no wash)
# [7] = means of duplicates, numbering of Tables 4a/4b, read-out: EC50
# [8] = estimated (*Est.) / preliminary results, numbering of Tables 4a/4b, read-out: EC50
# [9] = estimated based on preliminary results, numbering of Tables 4a/4b, read-out: EC50
smiles,measurement,setting,value
COC(=O)C[C@H](NC(=O)[C@H](C)NC(=O)[C@@H](NC(=O)OCc1ccccc1)C(C)C)C(=O)CF [zVAD] (Cbz-Val-Ala-Asp(OMe)-CH2F),EC50,U2OS_Bim cells [1]; [6],69.2 µM
same,mitochondria membrane potential and TMRM enrichment after apoptosis induction,U2OS_Bim cells [2],cannot be achieved
same,cell colonies after 1 week culture with DOX (crystal violet),U2OS_Bim cells [3]; 1 week,all killed
same,cell survival/proliferation over days after addition of DOX,"U2OS_Bim cells [3]; constant apoptotic insult, up to third day","clearly delayed death, most of the cells had died by the third day"
Cc1ccc(O)c(NC(=O)CCCS(=O)(=O)c2nc(-c3cccs3)cc(C(F)(F)F)n2)c1 [Hit],EC50,"U2OS_Bim cells [4]; DOX-induced Bim overexpression, viability 24 h after DOX, read-out: EC50",4.01 µM
same,EC50,U2OS_Bim cells [4]; [7],1 to 10 µM
same,EC50,U2OS_Bim cells [4]; read-out: EC50 in increasing cell survival rates following apoptosis induced by Bim overexpression,4 µM
same,EC50,"U2OS_Bim cells [1]; cells washed free of compound 3 times before DOX, read-out: EC50 (wash assay)",3.9 µM
same,EC50,U2OS_Bim cells [1]; [6],4.01 µM
same,mitochondrial cytochrome c release,U2OS_Bim cells [5],could prevent cytochrome c release
Cc1cc(-c2cc(F)c(=O)n(Cc3ccc4nnn(C)c4c3)c2)nc(S(=O)(=O)CCCn2c(=O)oc3ccccc32)n1 [Compound 367],EC50,U2OS_Bim cells [4]; [8],0.001 to 1 µM
Cc1cc(-c2ccc(=O)n(Cc3ccc4nnn(C)c4c3)n2)nc(S(=O)(=O)CCC(OCc2ccccc2F)c2ccccc2)n1 (stereo not shown) [Compound 369],EC50,U2OS_Bim cells [4]; [8],0.001 to 1 µM
"CS(=O)(=O)c1nc(-c2ccc[nH]c2=O)cc(C(F)(F)F)n1 [Compound 80, 3-(2-(methylsulfonyl)-6-(trifluoromethyl)pyrimidin-4-yl)pyridin-2 (1H)-one]",EC50,U2OS_Bim cells [4]; [7],< 100 µM
COc1ccc(Cn2cc(-c3cc(-c4cnco4)nc(S(C)(=O)=O)n3)ccc2=O)cc1OC [Compound 212],EC50,U2OS_Bim cells [4]; [9],< 10 µM
CNc1ccc(Cn2cc(-c3cc(C(F)(F)F)nc(S(C)(=O)=O)n3)ccc2=O)cc1OC [Compound 236],EC50,U2OS_Bim cells [4]; [9],< 10 µM
Cc1cc(-c2cc(F)c(=O)n(Cc3ccc4c(c3)NCCO4)c2)nc(S(=O)(=O)CCC(OCc2ccccc2F)c2ccccc2)n1 (stereo not shown) [Compound 359],EC50,U2OS_Bim cells [4]; [8],0.001 to 1 µM
C[S+]([O-])c1nc(-c2ccc(=O)n(Cc3ccc4ncccc4c3)c2)cc(C(F)(F)F)n1 (stereo not shown) [Compound 247],EC50,U2OS_Bim cells [4]; [9],< 10 µM
"COc1cc(Cl)c(Cn2cc(-c3cc(C(F)(F)F)nc(S(=O)(=O)CCC(=O)N4CCCCC4)n3)ccc2=O)cc1OC [Compound 154, 1-(2-chloro-4,5-dimethoxybenzyl)-5-(2-((3-oxo-3-(piperidin-1-yl)propyl)sulfonyl)-6-(trifluoromethyl)pyrimidin-4-yl)pyridin-2 (1H)-one]",EC50,U2OS_Bim cells [4]; [7],0.001 to 1 µM
"COc1ccc(Cn2cc(-c3cc(=O)n(C)c(S(C)(=O)=O)n3)ccc2=O)cc1OC [Compound 275, 6-(1-(3,4-dimethoxybenzyl)-6-oxo-1,6-dihydropyridin-3-yl)-3-methyl-2-(methylsulfonyl)pyrimidin-4 (3H)-one]",EC50,U2OS_Bim cells [4]; [7],< 100 µM
Cc1cc(-c2cc(F)c(=O)n(Cc3ccc4c(c3)OCO4)c2)nc(S(=O)(=O)CCCN(c2ccccc2)C2CCC2)n1 [Compound 376],EC50,U2OS_Bim cells [4]; [8],0.001 to 1 µM
"COc1ccc(Cn2cc(-c3cc(C(=O)c4ccccc4)nc(S(C)(=O)=O)n3)ccc2=O)cc1OC [Compound 271, 5-(6-benzoyl-2-(methylsulfonyl)pyrimidin-4-yl)-1-(3,4-dimethoxybenzyl)pyridin-2 (1H)-one]",EC50,U2OS_Bim cells [4]; [9],< 10 µM
"CN(C)c1cc(-c2cccs2)nc([S+](C)[O-])n1 (stereo not shown) [Compound 42, N,N-dimethyl-2-(methylsulfinyl)-6-(thiophen-2-yl)pyrimidin-4-amine]",EC50,U2OS_Bim cells [4]; [7],< 100 µM
"CS(=O)(=O)c1nc(-n2cccn2)cc(C(F)(F)F)n1 [Compound 83, 2-(methylsulfonyl)-4-(1H-pyrazol-1-yl)-6-(trifluoromethyl)pyrimidine]",EC50,U2OS_Bim cells [4]; [7],1 to 10 µM
C[S+]([O-])c1nc(-c2ccc(=O)n(Cc3ccc4c(c3)NCCO4)c2)cc(C(F)(F)F)n1 (stereo not shown) [Compound 243],EC50,U2OS_Bim cells [4]; [9],< 10 µM
"COc1cccc(Cn2ccc(-c3cc(C(F)(F)F)nc(S(C)(=O)=O)n3)c2)c1 [Compound 89, 4-(1-(3-methoxybenzyl)-1H-pyrrol-3-yl)-2-(methylsulfonyl)-6-(trifluoromethyl)pyrimidine]",EC50,U2OS_Bim cells [4]; [7],< 100 µM
